Patent US20020006906A1, “Novel active agent, composition containing it and use in the cosmetic, dermocosmetic, dermopharmaceutical or pharmaceutical field or on woven or nonwoven supports” (SOCIETE D'EXPLOITATION DE PRODUITS POUR LES, priority 2000, published 2002)

How the values were obtained:
superoxide anion = experiment: Anti-free-radical test: xanthine/xanthine oxidase, reduction of cytochrome C (550 nm); format: biochemical; conditions: 0.46% (as active substance); for % anti-free radical inhibition: 25° C.
Protocol: The determination of the anti-free-radical effect is based on the capacity which the molecule to be studied has to inhibit or reduce the rate of reduction of cytochrome C, when it is added to the reaction medium. The superoxide anion is formed by the action of xanthine oxidase on xanthine. It induces, in the absence of a molecule capable of capturing it, the reduction of cytochrome C. The appearance of reduced cytochrome C is monitored in a spectrophotometer at 550 nm, in the presence (Trial) and in the absence (Control) of anti-free-radical molecules.
The reaction is carried out in a spectrophotometer thermostated at 25° C. and provided with a sample changer. All the kinetics are determined at least three times; the mean and the standard deviation are calculated for the three values obtained. A percentage inhibition of the rate of appearance of the coloured product (corresponding to the quantity of free superoxide anion) is therefore calculated for each active agent tested. The calculation is performed relative to the rate of appearance of the coloured product in the control (without active agent). The percentage inhibition of the appearance of the coloured product by the active agent therefore corresponds to the percentage inhibition of the superoxide anion.

[1] = test system: normal human keratinocytes; experiment: Cell division: fluorimetric DNA assay in keratinocytes under thermal stress; format: cell-based
Protocol: The effect of the active agents on cell division is measured by a fluorimetric assay of the content of DNA in normal human keratinocytes subjected to a high thermal stress (20 minutes at 50° C.). The quantity of DNA present in the cells determines their capacity to divide. The cells are used at 60% confluence. They are incubated for 24 hours in the presence of the active agents. Cell division is determined by assaying the quantity of DNA present per well.
Four samples A, B, C and D, of a culture normal human keratinocytes, are subjected to the following respective treatments:
Sample A: cells not treated and left at room temperature.
Sample B: cells not treated and heated at 50° C. for 20 minutes.
Sample D: cells left incubated for 24 hours with panthenol (concentration: 12.5×10^−6% by weight of active substance) and heated at 50° C. for 20 minutes.
The DNA in each of the samples is then assayed.

Row | SMILES | Anti-free radical activity (in words) (superoxide anion) | % anti-free radical inhibition (superoxide anion) | Relative level of cell division (base 100: batch B) ([1]; Sample D: 12.5×10^−6% active substance, 24 hours, 50° C. for 20 minutes) | Cell division (in μg/well), DNA per well ([1]; Sample D: 24 hours with 12.5×10^−6% by weight of active substance, then 50° C. for 20 minutes (heated untreated sample B 3.7)) | Effect on cell division under heat (in words) ([1]; keratinocytes heated at 50° C. for 20 minutes)
1 | CC(C)(CO)C(O)C(=O)NCCCO (stereo not drawn) [Panthenol, 2,4-dihydroxy-N-(3-hydroxypropyl)-3,3-dimethylbutanamide] | nonexistent | 0% | 116.2 | 4.3 μg/well | only compensates for these effects
2 | O=C1O[C@H]([C@@H](O)CO)C(O)=C1O [Vitamin C, ascorbic acid] | – | 94% | – | – | –
